Species on record: Rattus norvegicus
Assay: DrugMatrix - Regimen: Daily Repeat
Type: toxicity, organism-based, Sprague-Dawley
Design: regimen Daily Repeat, gender Male, age 6-8 weeks
Conditions: in vivo, po, route oral GAVAGE, vehicle 100 % SALINE
[1] = 0 mg/kg, 72 h, tissue Blood, dose level Control, time 3 day
[2] = 0 mg/kg, 72 h, tissue Plasma, dose level Control, time 3 day
[3] = 0 mg/kg, 120 h, tissue Blood, dose level Control, time 5 day
[4] = 0 mg/kg, 120 h, tissue Plasma, dose level Control, time 5 day
[5] = 200 mg/kg, 72 h, tissue Blood, dose level Low, time 3 day
[6] = 200 mg/kg, 72 h, tissue Plasma, dose level Low, time 3 day

LEAD(IV) ACETATE
ABSOLUTE BASOPHIL [1]: 0 CELLS/uL
ABSOLUTE EOSINOPHIL [1]: 37 CELLS/uL
ABSOLUTE LYMPHOCYTE [1]: 12359.33 CELLS/uL
ABSOLUTE MONOCYTE [1]: 122.67 CELLS/uL
ABSOLUTE SEGMENTED NEUTROPHIL [1]: 847.67 CELLS/uL
BASOPHIL [1]: 0%
EOSINOPHIL [1]: 0.33%
ERYTHROCYTE COUNT [1]: 5.75 x10E6/uL
HEMATOCRIT [1]: 36.08%
LEUKOCYTE COUNT [1]: 13.37 x10E3/uL
MEAN CORPUSCULAR HEMOGLOBIN CONCENTRATION [1]: 38.98 G/DL
MONOCYTE [1]: 1%
NEUTROPHIL [1]: 6.17%
NUCLEATED RED BLOOD CELLS [1]: 0.17 /100WBC
PLATELET COUNT [1]: 1202.17 x10E3/uL
ALANINE AMINOTRANSFERASE [2]: 50.67 u/L
ALKALINE PHOSPHATASE [2]: 356.33 u/L
ASPARTATE AMINOTRANSFERASE [2]: 78.17 u/L
BLOOD UREA NITROGEN [2]: 14.17 mg/dL
CARBON DIOXIDE [2]: 31.33 mmol/L
CHLORIDE [2]: 98.5 MEQ/L
CHOLESTEROL [2]: 76.5 mg/dL
CREATINE PHOSPHOKINASE [2]: 248.33 u/L
CREATININE [2]: 0.2 mg/dL
LACTATE DEHYDROGENASE [2]: 107 u/L
LIPASE [2]: 9.83 u/L
PHOSPHORUS [2]: 12.8 mg/dL
POTASSIUM [2]: 6.75 MEQ/L
TOTAL BILIRUBIN [2]: 0.18 mg/dL
TOTAL PROTEIN [2]: 5.98 G/DL
URIC ACID [2]: 1.42 mg/dL
ABSOLUTE BASOPHIL [3]: 0 CELLS/uL
ABSOLUTE EOSINOPHIL [3]: 0 CELLS/uL
ABSOLUTE LYMPHOCYTE [3]: 8681.17 CELLS/uL
ABSOLUTE MONOCYTE [3]: 79.83 CELLS/uL
ABSOLUTE SEGMENTED NEUTROPHIL [3]: 689 CELLS/uL
BASOPHIL [3]: 0%
EOSINOPHIL [3]: 0%
ERYTHROCYTE COUNT [3]: 5.49 x10E6/uL
HEMATOCRIT [3]: 33.55%
HEMOGLOBIN [3]: 13.1 G/DL
LEUKOCYTE COUNT [3]: 9.45 x10E3/uL
LYMPHOCYTE [3]: 92.33%
MEAN CORPUSCULAR HEMOGLOBIN [3]: 23.92 pg
MEAN CORPUSCULAR HEMOGLOBIN CONCENTRATION [3]: 39.07 G/DL
MONOCYTE [3]: 0.67%
NEUTROPHIL [3]: 7%
NUCLEATED RED BLOOD CELLS [3]: 0.17 /100WBC
PLATELET COUNT [3]: 1001.17 x10E3/uL
ALANINE AMINOTRANSFERASE [4]: 49.33 u/L
ALKALINE PHOSPHATASE [4]: 300.33 u/L
ASPARTATE AMINOTRANSFERASE [4]: 83.5 u/L
BLOOD UREA NITROGEN [4]: 16 mg/dL
CHLORIDE [4]: 100.5 MEQ/L
CHOLESTEROL [4]: 74.33 mg/dL
CREATINE PHOSPHOKINASE [4]: 489.67 u/L
CREATININE [4]: 0.35 mg/dL
GLUCOSE [4]: 151 mg/dL
LACTATE DEHYDROGENASE [4]: 133.67 u/L
LIPASE [4]: 11.17 u/L
PHOSPHORUS [4]: 10.88 mg/dL
POTASSIUM [4]: 5.5 MEQ/L
SODIUM [4]: 145.7 MEQ/L
TOTAL BILIRUBIN [4]: 0.2 mg/dL
TOTAL PROTEIN [4]: 6.05 G/DL
URIC ACID [4]: 0.68 mg/dL
ABSOLUTE BASOPHIL [5]: 0 CELLS/uL
ABSOLUTE EOSINOPHIL [5]: 125.67 CELLS/uL
ABSOLUTE LYMPHOCYTE [5]: 10005 CELLS/uL
ABSOLUTE MONOCYTE [5]: 182.33 CELLS/uL
ABSOLUTE SEGMENTED NEUTROPHIL [5]: 487 CELLS/uL
BASOPHIL [5]: 0%
EOSINOPHIL [5]: 1%
ERYTHROCYTE COUNT [5]: 5.79 x10E6/uL
HEMATOCRIT [5]: 34.9%
HEMOGLOBIN [5]: 13.63 G/DL
LEUKOCYTE COUNT [5]: 10.8 x10E3/uL
LYMPHOCYTE [5]: 92.67%
MEAN CORPUSCULAR HEMOGLOBIN [5]: 23.53 pg
MEAN CORPUSCULAR HEMOGLOBIN CONCENTRATION [5]: 39.07 G/DL
MEAN CORPUSCULAR VOLUME [5]: 60.3 fL
NEUTROPHIL [5]: 5%
NUCLEATED RED BLOOD CELLS [5]: 0 /100WBC
PLATELET COUNT [5]: 964.33 x10E3/uL
ALANINE AMINOTRANSFERASE [6]: 55.67 u/L
ALKALINE PHOSPHATASE [6]: 341.67 u/L
ASPARTATE AMINOTRANSFERASE [6]: 108 u/L
BLOOD UREA NITROGEN [6]: 12.67 mg/dL
CARBON DIOXIDE [6]: 29.33 mmol/L
CHLORIDE [6]: 100 MEQ/L
CHOLESTEROL [6]: 73.67 mg/dL
CREATINE PHOSPHOKINASE [6]: 327.67 u/L
CREATININE [6]: 0.26 mg/dL
GLUCOSE [6]: 150.33 mg/dL
LACTATE DEHYDROGENASE [6]: 126.67 u/L
LIPASE [6]: 14.33 u/L
POTASSIUM [6]: 6.03 MEQ/L
TOTAL BILIRUBIN [6]: 0.0667 mg/dL
TOTAL PROTEIN [6]: 5.93 G/DL
URIC ACID [6]: 1.2 mg/dL
